Literature values, collected in US6964953B2, “Methods for treating stress disorders using glucocorticoid receptor-specific antagonists” (Corcept Therapeutics, Inc., priority 2001, dated 2005).

Columns and labels:
[1] = biological target: T1, glucocorticoid (GR) receptor (Homo sapiens, UniProt P04150); settings: result in words
T1 sequence (P04150 1-777): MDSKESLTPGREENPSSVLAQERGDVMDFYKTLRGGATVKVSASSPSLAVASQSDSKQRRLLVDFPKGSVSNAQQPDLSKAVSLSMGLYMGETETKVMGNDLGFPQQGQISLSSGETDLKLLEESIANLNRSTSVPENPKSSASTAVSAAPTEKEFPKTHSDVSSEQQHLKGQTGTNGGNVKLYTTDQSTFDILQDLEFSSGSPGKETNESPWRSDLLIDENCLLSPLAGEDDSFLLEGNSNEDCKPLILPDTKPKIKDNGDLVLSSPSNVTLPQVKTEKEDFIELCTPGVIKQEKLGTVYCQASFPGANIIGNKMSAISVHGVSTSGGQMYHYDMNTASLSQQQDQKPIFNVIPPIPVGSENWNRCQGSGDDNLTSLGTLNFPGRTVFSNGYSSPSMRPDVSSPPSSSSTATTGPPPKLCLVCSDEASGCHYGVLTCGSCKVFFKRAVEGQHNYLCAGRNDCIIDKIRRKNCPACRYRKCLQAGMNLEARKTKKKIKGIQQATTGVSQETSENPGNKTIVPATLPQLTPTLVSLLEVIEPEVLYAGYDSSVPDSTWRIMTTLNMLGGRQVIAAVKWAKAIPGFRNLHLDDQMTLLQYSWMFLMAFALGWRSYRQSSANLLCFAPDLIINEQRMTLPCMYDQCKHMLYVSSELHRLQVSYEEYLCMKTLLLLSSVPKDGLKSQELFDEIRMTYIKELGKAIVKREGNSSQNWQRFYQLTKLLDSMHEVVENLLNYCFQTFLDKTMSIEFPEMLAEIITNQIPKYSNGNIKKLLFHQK

[2] = test system: mouse hippocampus neuronal cells; settings: Behl et al. 1997
progesterone receptor = biological target: T2, progesterone receptor (Homo sapiens, UniProt P06401); settings: result in words
T2 sequence (P06401 1-933): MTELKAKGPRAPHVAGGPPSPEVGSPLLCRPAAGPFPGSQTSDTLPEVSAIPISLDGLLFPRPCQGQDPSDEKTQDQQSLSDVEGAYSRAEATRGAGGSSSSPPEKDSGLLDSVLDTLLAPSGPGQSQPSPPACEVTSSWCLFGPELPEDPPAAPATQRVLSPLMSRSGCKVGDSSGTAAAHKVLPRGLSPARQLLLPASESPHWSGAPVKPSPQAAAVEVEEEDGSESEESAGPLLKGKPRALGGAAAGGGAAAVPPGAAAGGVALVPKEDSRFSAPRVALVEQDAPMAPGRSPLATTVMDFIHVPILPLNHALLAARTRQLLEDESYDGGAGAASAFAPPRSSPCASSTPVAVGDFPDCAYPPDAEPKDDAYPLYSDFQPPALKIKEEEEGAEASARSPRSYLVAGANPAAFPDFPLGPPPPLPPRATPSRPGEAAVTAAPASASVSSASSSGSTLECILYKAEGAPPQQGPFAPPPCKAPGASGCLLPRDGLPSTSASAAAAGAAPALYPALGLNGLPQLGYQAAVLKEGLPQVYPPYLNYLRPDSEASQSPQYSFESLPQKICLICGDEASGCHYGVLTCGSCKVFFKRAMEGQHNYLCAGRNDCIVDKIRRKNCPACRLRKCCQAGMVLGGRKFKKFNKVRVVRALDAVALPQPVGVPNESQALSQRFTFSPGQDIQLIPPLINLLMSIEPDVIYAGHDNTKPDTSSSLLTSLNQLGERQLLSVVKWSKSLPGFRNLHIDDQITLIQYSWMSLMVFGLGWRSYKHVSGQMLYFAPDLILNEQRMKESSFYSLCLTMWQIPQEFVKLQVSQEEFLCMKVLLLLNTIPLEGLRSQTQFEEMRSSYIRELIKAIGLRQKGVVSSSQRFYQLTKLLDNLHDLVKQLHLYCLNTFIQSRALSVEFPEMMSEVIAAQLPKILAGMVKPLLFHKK

rat hippocampus = settings: Talmi et al. 1996
[3] = in one study; Kawai (1989)

Row | SMILES | GR antagonist activity [1] | protection against oxidative stress-induced neuronal cell death [2] | progesterone receptor antagonist activity (progesterone receptor) | abrogation of age-associated electrophysiological changes (rat hippocampus) | daily dose excreted in the urine [3]
1 | CC#C[C@]1(O)CC[C@H]2[C@@H]3CCC4=CC(=O)CCC4=C3[C@@H](c3ccc(OCCN(C)C)cc3)C[C@@]21C [RU009, 11-beta-(4-dimethyl-aminoethoxyphenyl)-17-alpha-(propynyl-17 beta-hydroxy-4,9-estradien-3-one)] | shown to have GR antagonist effects | – | – | – | –
2 | CC#C[C@]1(O)CC[C@H]2[C@@H]3CCC4=CC(=O)CCC4=C3[C@@H](c3ccc(N(C)C)cc3)C[C@@]21C [Mifepristone, 17-beta-hydroxy-11-beta-(4-dimethyl-aminophenyl)-17-alpha-(1-propynyl)-estra-4,9-dien-3-one] | powerful antagonist | providing protection against oxidative stress-induced neuronal cell death | powerful antagonist | effective at abrogating some of the age-associated electrophysiological changes | less than 0.5%
